Data set [1] can be described thus: Stability at neutral and lower pH. It is filed as physicochemical. Particulars: neutral and lower pH values.
Data set [2] can be described thus: Solubility in deionized water. Format: physicochemical.
The test system of another data set is isolated rat atria. The experiment in a line: Bioassay for positive inotropic effect on isolated rat atria. It is filed as cell-based. The method, then: Bioassay for Determining Positive Inotropic Effect
Bioassays of the solutions containing anthopleurin-C are performed on isolated atria of rat hearts. The atrium is separated from the rest of the heart and suspended in an isolated organ bath (20, 25, or 50 ml.) containing Krebs Ringer bicarbonate medium (pH 7.4) of the following composition in distilled deionized water (in mmoles): Na^+, 145; K^+, 6.02; Ca^+2, 1.22; Mg^+2, 1.33; Cl^-, 126; HCO3^-, 25.3; PO4^-3, 1.2; SO4^-2, 1.33; and glucose, 5.5. The temperature of the organ bath is maintained at 30° C., and the Krebs-Ringer medium is continuously aerated with 95% O2 --5% CO2.
The spontaneously beating atrial preparation is connected by a thin silk thread to a force-displacement transducer (Grass model FT.03), and the contractile movements are recorded on a six-channel polygraph Grass Model 7. The preparation is allowed to equilibrate under 750 mg. tension for 60 minutes prior to beginning an assay. After this equilibration, during which the preparations are washed out every 30 minutes, the spontaneous beat rate of the atria remains constant; the change during a 10-minute observation being less than 5 beats/min. The changes in contractile force and rate produced by the test solution containing anthopleurin-C is expressed as a percentage increase or decrease in tension and rhythm, with the period immediately preceding addition of test solution to the tissue bath as the baseline for comparison.

A short description of another data set: Isoelectric focusing. Particulars: doubly purified material. Format: physicochemical. From the text: For the purpose of obtaining electrophoretic properties, the anthopleurin-Cobtained in Example 1, Steps a through d below, was rechromatographed on CM Sephadex C-25, and G-10 according to the process set forth in Example 1, Steps c, and d, respectively. The doubly purified material was subjected to electrophoretic analysis using commercially available pre-cast 12% acrylamide gels and matched buffer systems obtained from Bio·Rad Laboratories, 32nd and Griffin, Richmond, California.
Isoelectric focusing gave the isoelectric point at a pH = 8.0. Disc gel electrophoresis with 12% polyacrylamide gel at pH 3.6 gave an Rf value of 0.49 versus methyl green tracking dye. […] Sodium dodecyl sulfate (SDS) disc gel electrophoresis using a 10% gel indicated a m.w. of about 5,200 after incubation with dithioerythritol, using RNase A and pancreatic trypsin inhibitor (PTI) for comparison. The molecular weight is so low that these values are only approximate.

For anthopleurin-C, the stability result in data set [1] is “relatively stable”. The solubility result in data set [2] is recorded as “very soluble”. In addition, the “potency relative to ouabain in positive inotropic effect” value in the data set with isolated rat atria (fold as potent as ouabain) is reported as 200-1000 x. Also, in the data set with isolated rat atria (isolated rat atria), the “ED50, positive inotropic effect” value amounted to 3 nM and the chronotropic effect result is recorded as “does not show any chronotropic effect”. Further, the isoelectric point in the data set “Isoelectric focusing” stood at 8.0 pH.

The values above are taken from patent publication US4103004A, “Cardiotonic agent” (University of Hawaii, priority 1977, dated 1978).
